In patent US12577594B2, “Engineered microorganisms and methods for improved aldehyde dehydrogenase activity” (Genomatica, Inc., priority 2019, dated 2026):

Columns and labels:
Test in all cases: Kinetic characterization of purified Ald with varied substrate CoA (Example 4, Table 5)
[1] = system: Collinsella sp. GD7 aldehyde dehydrogenase (Ald), SEQ ID NO: 60; format: biochemical; settings: for Catalytic efficiency kcat/KM / Km / Turnover number kcat: purified protein, substrate CoA varied, conditions similar to Example 1 (0.1 M Tris-HCl, pH 7.5)
Description: (§1) The lysates (5 μl) were added to an assay mixture to result in a total volume of 20 μL with final concentrations of 0.1 M Tris-HCl, pH 7.5, 2.5 mM adipyl-CoA (AdCoA), and either 0.5 mM NADH or 0.5 mM NADPH. This assay was used to screen all of the Ald enzyme candidates. Some Ald candidates were also assayed using succinyl-CoA (SuCoA) or acetyl-CoA (AcCoA) as substrates. AdCoA, SuCoA, and AcCoA were obtained from commercial suppliers. Activity was monitored by a linear decrease in fluorescence of NADH or NADPH in the presence of the CoA substrate.
(§2) Kinetic characterization was done under similar conditions as the lysate screening described in Example 1; however, in this case purified protein was used instead of cell lysates. Each of the Acidaminococcus massiliensis Ald (SEQ ID NO:28), the Collinsella sp. GD7 Ald (SEQ ID NO:60), and the Romboutsia lituseburensis DSM Ald (SEQ ID NO:107) was purified using affinity chromatography. In these assays, the concentration each of the substrate CoAs was varied to determine the turnover number (kcat), the affinity of the enzyme for the substrate (KM) of the enzyme, the catalytic efficiency (kcat/KM) of each selected Ald enzyme for each substrate were determined and shown in the Table 5 below.
(§3) Catalytic efficiency (kcat/KM) of the various aldehyde dehydrogenases using various substrates were plotted in a bar graph for comparison (FIG. 3A).

[2] = system: Acidaminococcus massiliensis aldehyde dehydrogenase (Ald), SEQ ID NO: 28; format: biochemical; settings: for Catalytic efficiency kcat/KM / Km / Turnover number kcat: purified protein, substrate CoA varied, conditions similar to Example 1 (0.1 M Tris-HCl, pH 7.5)
Description: as §1, §2, §3

[3] = biological target: Romboutsia lituseburensis DSM aldehyde dehydrogenase (Ald), SEQ ID NO: 107 (Romboutsia lituseburensis, UniProt A0A1G9MGA8); format: biochemical; settings: ratio of kcat/KM
Description: as §1, §2, §3

[4] = system: CC(C)(COP(=O)(O)OP(=O)(O)OC[C@H]1O[C@@H](n2cnc3c(N)ncnc32)[C@H](O)[C@@H]1OP(=O)(O)O)[C@@H](O)C(=O)NCCC(=O)NCCSC(=O)CCC(=O)O; format: biochemical, Romboutsia lituseburensis DSM; settings: other: purified protein, conditions similar to Example 1 (0.1 M Tris-HCl, pH 7.5)
Description: as §1, §2, §3

[5] = system: CC(C)(COP(=O)(O)OP(=O)(O)OC[C@H]1O[C@@H](n2cnc3c(N)ncnc32)[C@H](O)[C@@H]1OP(=O)(O)O)[C@@H](O)C(=O)NCCC(=O)NCCSC(=O)CCCCC(=O)O; format: biochemical, Romboutsia lituseburensis DSM; settings: other: purified protein, conditions similar to Example 1 (0.1 M Tris-HCl, pH 7.5)
Description: as §1, §2, §3

[6] = system: CC(=O)SCCNC(=O)CCNC(=O)[C@H](O)C(C)(C)COP(=O)(O)OP(=O)(O)OC[C@H]1O[C@@H](n2cnc3c(N)ncnc32)[C@H](O)[C@@H]1OP(=O)(O)O; format: biochemical, Romboutsia lituseburensis DSM; settings: other: purified protein, conditions similar to Example 1 (0.1 M Tris-HCl, pH 7.5)
Description: as §1, §2, §3

Row | Molecule | Catalytic efficiency kcat/KM [1] | Km [1] | Turnover number kcat [1] | Catalytic efficiency kcat/KM [2] | Km [2] | Turnover number kcat [2] | further results
1 | CC(C)(COP(=O)(O)OP(=O)(O)OC[C@H]1O[C@@H](n2cnc3c(N)ncnc32)[C@H](O)[C@@H]1OP(=O)(O)O)[C@@H](O)C(=O)NCCC(=O)NCCSC(=O)CCC(=O)O [Succinyl-CoA] | 26 M⁻¹ s⁻¹ | 400 µM | 0.010 s⁻¹ | 290 M⁻¹ s⁻¹ | 790 µM | 0.23 s⁻¹ | 
2 | CC(=O)SCCNC(=O)CCNC(=O)[C@H](O)C(C)(C)COP(=O)(O)OP(=O)(O)OC[C@H]1O[C@@H](n2cnc3c(N)ncnc32)[C@H](O)[C@@H]1OP(=O)(O)O [Acetyl-CoA] | 1.6 M⁻¹ s⁻¹ | > 2000 µM |  | 100 M⁻¹ s⁻¹ | 380 µM | 0.040 s⁻¹ | 
3 | CC(C)(COP(=O)(O)OP(=O)(O)OC[C@H]1O[C@@H](n2cnc3c(N)ncnc32)[C@H](O)[C@@H]1OP(=O)(O)O)[C@@H](O)C(=O)NCCC(=O)NCCSC(=O)CCCCC(=O)O [Adipyl-CoA] | 150 M⁻¹ s⁻¹ | 100 µM | 0.015 s⁻¹ | 3000 M⁻¹ s⁻¹ | 810 µM | 2.5 s⁻¹ | Catalytic efficiency (kcat/KM) for adipyl-CoA over succinyl-CoA ([1]; ratio of kcat/KM, FIG. 3B): higher catalytic efficiency for adipyl-CoA over succinyl-CoA; Catalytic efficiency (kcat/KM) for adipyl-CoA over acetyl-CoA ([1]; ratio of kcat/KM, FIG. 3C): higher catalytic efficiency for adipyl-CoA over acetyl-CoA; Catalytic efficiency (kcat/KM) for adipyl-CoA over succinyl-CoA ([3]; FIG. 3B): higher catalytic efficiency for adipyl-CoA over succinyl-CoA; Catalytic efficiency (kcat/KM) for adipyl-CoA over acetyl-CoA ([3]; FIG. 3C): higher catalytic efficiency for adipyl-CoA over acetyl-CoA; Catalytic efficiency (kcat/KM) for adipyl-CoA over succinyl-CoA ([2]; ratio of kcat/KM, FIG. 3B): higher catalytic efficiency for adipyl-CoA over succinyl-CoA; Catalytic efficiency (kcat/KM) for adipyl-CoA over acetyl-CoA ([2]; ratio of kcat/KM, FIG. 3C): higher catalytic efficiency for adipyl-CoA over acetyl-CoA
4 | Romboutsia lituseburensis DSM aldehyde dehydrogenase (Ald), SEQ ID NO: 107 (Romboutsia lituseburensis DSM 797) |  |  |  |  |  |  | Km [4]: 220 µM; kcat [4]: 0.056 s⁻¹; kcat/Km [4]: 250 M⁻¹ s⁻¹; Km [5]: 240 µM; kcat [5]: 1.0 s⁻¹; kcat/Km [5]: 4000 M⁻¹ s⁻¹; Km [6]: 310 µM; kcat [6]: 0.013 s⁻¹; kcat/Km [6]: 40 M⁻¹ s⁻¹
